This is an account of results in publication PMC11320574 (ACS Infectious Diseases, 2024).

Structures are written as SMILES. Positions of bridges follow the written chain, without caps; N, C: chain ends. Residues, ends and D or L forms follow the SMILES beside them.

Data set [1] can be described thus: Resistance to breakdown by serum proteases. The note with it: human, 25% (v/v) human serum in PBS. It counts as in vitro ADME.
Data set [2] relates to P. falciparum 3D7. In words: In vitro growth inhibition of P. falciparum 3D7. It counts as cell-based, Plasmodium falciparum. As to conditions: HC10 of uninfected RBCs relative to Pf IC50 with 5 mg/mL Albumax II supplement.

`CC[C@H](C)[C@@H]1NC(=O)[C@H](CCCCN)NC(=O)[C@H](CCCCN)NC(=O)[C@H](Cc2ccc(O)cc2)NC(=O)[C@H](CC(C)C)NC(=O)[C@@H]2CCCN2C(=O)[C@H](C)NC(=O)CNC(=O)CNC(=O)[C@H](CO)NC(=O)CNC(=O)CNC(=O)[C@H](CO)NC(=O)[C@H](CCCCN)NC(=O)[C@H](CC(C)C)NC(=O)[C@H](CC(C)C)NC(=O)[C@H](CCCCN)NC(=O)[C@H](CCCCN)NC(=O)[C@H]([C@@H](C)CC)NC(=O)[C@H]([C@@H](C)CC)NC(=O)[C@H](CCCCN)NC(=O)[C@H](CCCCN)NC(=O)[C@H](Cc2ccc(O)cc2)NC(=O)[C@H](CC(C)C)NC(=O)[C@@H]2CCCN2C(=O)CNC(=O)CNC(=O)[C@@H](NC(=O)CN)CSSC[C@@H](C(N)=O)NC(=O)[C@H](CC(C)C)NC(=O)[C@H](CCCCN)NC(=O)[C@H](CCCCN)NC(=O)[C@H]([C@@H](C)CC)NC1=O` [Peptide 10] (H-GCGGPLYKKIIKKLLKSGGSGGAPLYKKIIKKLC-NH2; disulfide 2-34; N-terminus assumed) displayed a fraction remaining at 24 h, 50 μM in data set [1] of 0%. In addition, in data set [2], the “Activity-hemolysis index RBC HC10/ Pf IC50” value worked out at 6.5 ± 1.2.
